Measurements reported in patent publication US20060110787A1, “Use of fluorine-18-labeled fluoroquinolone antibiotics for diagnosing and monitoring bacterial infection” (The Board Trustees of the University of Arkansas, priority 2004, published 2006).

Test system: bacterial infections (bone, wound, respiratory and other)
Test: PET scan imaging of human subjects after intravenous injection of the 18F-labeled fluoroquinolone
Assay type: in vivo
Settings: 700 to 1400 MBq i.v.; PET scan 30 to 60 minutes after injection; patients with various bacterial infections vs healthy subjects
Protocol: [^18F]ciprofloxacin administration to human subjects suspected of having bacterial infection and PET monitoring of the localization of [^18F] in the subjects. Healthy subjects are injected intravenously with 700 to 1400 MBq of [^18F]ciprofloxacin. In order to correct for the attenuation of photons by tissue, a transmission scan with two 400-MBq pin sources or from CT data (if the scan is acquired on a PET/CT scanner) is recorded after obtaining the emission scan. Thirty to sixty minutes after injection of [^18F]ciprofloxacin, data are obtained by PET scan of the regions of concern (such as the whole body or a specific area such as the hip or chest, depending on the clinical need) . Each subject is positioned supine on the imaging bed. The data on healthy subjects establish the appearance of the distribution of [^18F]ciprofloxacin in uninfected patients.
The same protocol is used on patients diagnosed by other criteria with bacterial bone infections, bacterial wound infections, bacterial respiratory infections, and other bacterial infections.
Healthy subjects and subjects confirmed by conventional diagnostic methods to have bacterial infections of various types are injected intravenously with 700 to 1400 MBq of [^18F]fleroxacin. After 30 to 60 minutes, the subjects are subjected to PET scan imaging as described in Example 1.

O=C(O)c1cn(C2CC2)c2cc(N3CCNCC3)c(F)cc2c1=O [[^18F]ciprofloxacin]
PET scan results of patients with bacterial infections versus healthy volunteers: distinguishable from the PET scan results of healthy volunteers

[^18F]fleroxacin
PET scan results of patients with bacterial infections versus healthy volunteers: distinguishable from the PET scan results of healthy volunteers
